# Results reported in the supplement of paper PMC10307832.
# Experiments:
# Assay in all cases: relative viability (nuclei count vs DMSO), 5 days (fraction); higher = more cells survive
# [1] = compound: COc1cc(-c2nn([C@H]3CC[C@H](N4CCN(C(C)=O)CC4)CC3)c3ncnc(N)c23)ccc1NC(=O)c1cc2ccccc2n1C + Nc1nc2[nH]cc(CCc3ccc(C(=O)N[C@@H](CCC(=O)O)C(=O)O)cc3)c2c(=O)[nH]1 [Pemetrexed] (partner 0.2 µM)
# Procedure, shortened: (§1)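 A single step with final 0.05% Triton X-100, 1% formaldehyde and 1 ug/ml Hoechst fixed the cells and stained nuclei 5 days after treatment. Lung cancer cell lines in 1536-well plates had been treated by pin tool the day after seeding with one drug alone or a fixed anchor-drug dose plus five library-drug doses (not always all listed) in √10 steps, and nuclei were counted on 4× images. Relative viability is the ratio of nuclei in treated wells to nuclei in vehicle wells, taken as the median of duplicate plates.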
# Midostaurin + Crizotinib = compound: CO[C@@H]1[C@H](N(C)C(=O)c2ccccc2)C[C@H]2O[C@]1(C)n1c3ccccc3c3c4c(c5c6ccccc6n2c5c31)C(=O)NC4 [Midostaurin] + C[C@@H](Oc1cc(-c2cnn(C3CCNCC3)c2)cnc1N)c1c(Cl)ccc(F)c1Cl [Crizotinib] (partner 1 µM)
# Procedure, shortened: as §1
# Midostaurin + Foretinib = compound: CO[C@@H]1[C@H](N(C)C(=O)c2ccccc2)C[C@H]2O[C@]1(C)n1c3ccccc3c3c4c(c5c6ccccc6n2c5c31)C(=O)NC4 [Midostaurin] + COc1cc2c(Oc3ccc(NC(=O)C4(C(=O)Nc5ccc(F)cc5)CC4)cc3F)ccnc2cc1OCCCN1CCOCC1 [Foretinib] (partner 0.25 µM)
# Procedure, shortened: as §1
# [2] = compound: COc1cc(-c2nn([C@H]3CC[C@H](N4CCN(C(C)=O)CC4)CC3)c3ncnc(N)c23)ccc1NC(=O)c1cc2ccccc2n1C + CS(=O)(=O)CCNCc1ccc(-c2ccc3ncnc(Nc4ccc(OCc5cccc(F)c5)c(Cl)c4)c3c2)o1 [Lapatinib] (partner 2 µM)
# Procedure, shortened: as §1
# [3] = compound: COc1cc(-c2nn([C@H]3CC[C@H](N4CCN(C(C)=O)CC4)CC3)c3ncnc(N)c23)ccc1NC(=O)c1cc2ccccc2n1C + CC(C)C[C@H](NC(=O)[C@H](Cc1ccccc1)NC(=O)c1cnccn1)B(O)O [Bortezomib] (partner 0.002 µM)
# Procedure, shortened: as §1
Cell Line,relative viability ([1]; first compound 0.0128 µM),relative viability ([1]; first compound 0.04048 µM),relative viability ([1]; first compound 0.128 µM),relative viability ([1]; first compound 1.28 µM),relative viability (Midostaurin + Crizotinib; first compound 0.01 µM),relative viability (Midostaurin + Crizotinib; first compound 0.03162 µM),relative viability (Midostaurin + Crizotinib; first compound 0.1 µM),relative viability (Midostaurin + Crizotinib; first compound 0.3162 µM),relative viability (Midostaurin + Foretinib; first compound 0.01 µM),relative viability (Midostaurin + Foretinib; first compound 0.03162 µM),relative viability (Midostaurin + Foretinib; first compound 0.1 µM),relative viability (Midostaurin + Foretinib; first compound 0.3162 µM),relative viability ([2]; first compound 0.0128 µM),relative viability ([2]; first compound 0.04048 µM),relative viability ([2]; first compound 0.128 µM),relative viability ([2]; first compound 1.28 µM),relative viability ([3]; first compound 0.0128 µM),relative viability ([3]; first compound 0.04048 µM),relative viability ([3]; first compound 0.128 µM),relative viability ([3]; first compound 1.28 µM)
NCI-H661,0.939,0.991,0.93,0.968,0.931,0.928,0.918,0.982,0.903,0.847,1.02,1.04,0.545,0.532,0.469,0.319,0.879,0.823,0.709,0.384
NCI-H838,0.254,0.262,0.224,0.221,0.877,0.634,0.812,0.524,1.05,0.939,0.759,0.497,1.06,1.02,0.913,0.629,1.18,0.817,0.578,0.628
NCI-H1355,1.18,1.06,1.01,0.967,0.965,1.01,0.987,1,1.02,0.913,0.817,0.971,1.11,0.928,0.952,0.897,1.4,1.23,1.22,1.15
NCI-H1437,0.351,0.339,0.287,0.303,0.935,0.87,0.878,1,1.26,1.09,1.22,1.22,0.901,0.91,0.77,0.764,0.587,0.522,0.365,0.585
NCI-H1563,0.755,0.778,0.853,0.582,0.817,0.872,0.85,0.834,0.985,0.976,0.847,0.785,1.01,0.961,0.822,0.681,0.916,0.882,0.824,0.664
NCI-H1650,0.332,0.384,0.348,0.468,1.06,1.06,1.03,0.702,1.16,1.11,0.911,1.19,0.782,0.846,0.69,0.6,0.225,0.179,0.211,0.205
NCI-H1651,0.57,0.617,0.57,0.438,0.916,0.85,0.918,0.889,0.882,0.819,0.764,0.683,0.961,1.03,0.621,0.74,0.85,0.949,0.939,0.84
NCI-H1666,0.881,0.803,0.84,0.847,0.874,1.12,0.858,0.787,0.881,0.954,0.786,0.754,0.712,0.664,0.581,0.509,0.946,0.859,0.807,0.68
NCI-H1734,0.432,0.391,0.406,0.432,0.653,0.691,0.705,0.647,0.878,0.739,0.866,0.679,1.12,1.04,0.959,0.871,0.995,0.862,1.1,0.756
NCI-H1755,0.438,0.43,0.577,0.57,0.808,0.805,0.761,0.484,0.944,0.848,0.787,0.628,1.17,0.967,0.974,1.05,1.06,0.993,1.03,0.86
NCI-H1915,0.536,0.452,0.488,0.5,0.889,0.889,0.979,0.94,1.1,0.993,1.04,1.09,1.08,1.03,0.992,1.01,1.05,1.03,0.931,0.929
NCI-H1975,0.318,0.29,0.297,0.255,1,0.963,0.863,0.623,0.925,1.01,0.952,0.647,0.891,0.928,0.837,0.447,0.401,0.399,0.332,0.199
NCI-H1993,0.684,0.543,0.598,0.599,0.879,0.762,1.06,0.893,0.863,0.761,0.765,0.935,0.853,0.811,0.807,0.812,1.2,1.09,1,0.956
NCI-H2009,1.03,1.09,1.21,1.19,1.07,0.98,0.996,1.06,1.22,1.09,0.88,1.16,1.26,0.438,0.961,0.888,1.14,0.555,1.06,0.962
NCI-H2023,0.258,0.211,0.229,0.242,0.642,0.613,0.584,0.499,0.856,0.984,0.686,0.631,0.856,0.782,0.923,0.845,0.977,1.11,0.897,0.905
